# Laboratory results from patent US11541029B2, “High penetration compositions and their applications” (Techfields Pharma Co., Ltd., priority 2008, dated 2023).
# Assays:
# [1] = Distribution in organs of rats killed with CO2 (absence of general circulation); settings: 5 hrs after 0.3 mmol/kg diethylaminoethyl acetylsalicylate HCl salt on back of killed rats;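 also: tissue concentration in nmol/g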
# Description: 0.3 mmol/kg of diethylaminoethyl acetylsalicylate HCl salt (10% in pure water) was applied to the back of rats (10 cm^2) which were killed with CO2. The rats were shaken for 5 hrs, then the HPCs and parent drugs in organs of rats were determined.
# [2] = system: Human breast cancer cells (BCAP-37); assay: Human breast cancer xenograft in nude mice
# Description: Human breast cancer cells (BCAP-37, 2-3 mm^3 of tumor tissue was used in each mouse) were subcutaneously xenografted into nude mice (BALB, 12 groups, 7 mice each group). […] 50 μl of 5% (equal to 2.5 mg of the HPCs) diethylaminoethyl acetylsalicylate.HCl (P-1, in pure water); 1-piperidinepropyl 2[(2,6-dichlorophenyl)amino]benzene acetate.HCl (P-2, in water), 1-pyrrolidinepropyl 2-(3-benzoylphenyl) propionate.HCl (P-3, in water), 4-piperidinemethyl 2-(3-phenoxyphenyl)propionate.HCl (P-4, in water), 3-piperidinemethyl 2-(ρ-isobutylphenyl) propionate.HCl (P-5, in water), diethylaminoethyl 1-(p-chlorobenzoyl)-5-methoxy-2-methylindole 3-acetate.HCl (P-11, in water), 2-(4-morpholinyl)ethyl (Z)-5-fluoro-2-methyl-1-[(4-methylsulfinyl)phenylmethylene]-1H-indene-3-acetate.
# [3] = system: human myeloma cell line implanted into mice; assay: Survival and weight loss of myeloma mice (Example 111); assay type: in vivo; settings: for Weight Loss: day 21; for Life Elongation Rate / None Disease Rate / Survival Period: n=7
# Text: A human myeloma cell line derived from the ascites of a patient with multiple myeloma was implanted into mice. The mice was divided into 11 groups: control group (A, orally), melphalan (B1 and B2, orally), chlorambucil (C1 and C2, orally), N,N-diethylaminoethyl 4-[bis(2-chloroethyl)amino]benzenebutyrate.HBr (D1 and D2, transdermally), 4-[bis(2-chloroethyl)amino]-N-acetyl-L-phenylalanine N,N-diethylaminoethyl ester hydrobromide (E1 and E2, transdermally in 5% aqueous solution), and diethylaminoethyl 4-[bis(2-methylsulfonylethyl)amino]benzenebutyrate.HCl (F1 and F2, transdermally in 5% aqueous solution). The body weight loss of mice was determined on day 21.
# [4] = system: human myeloma cell line implanted into mice; assay: Survival of mice with multiple myeloma (Example 110, Study B); assay type: in vivo; settings: n=5
# Description: Study B: For evaluation of antitumor activity, a human myeloma cell line derived from the ascites of a patient with multiple myeloma was implanted into mice. The experiment was carried out on 17 groups of mice. Control group (A, orally), chlorambucil (group B1: 1 mg/kg, orally, group B2, 3 mg/kg, orally, group B3:1 mg/kg, transdermally, and group B4: 3 mg/kg, transdermally), melphalan (group C1: 1 mg/kg, orally, group C2, 3 mg/kg, orally, group C3:1 mg/kg, transdermally, and group C4: 3 mg/kg, transdermally), N,N-diethylaminoethyl 4-[bis(2-chloroethyl)amino]benzenebutyrate.HBr (the HPC of chlorambucil (group D1: 1 mg/kg, orally, group D2, 3 mg/kg, orally, group D3:1 mg/kg, transdermally, and group D4: 3 mg/kg, transdermally), and 4-[bis(2-chloroethyl)amino]-N-acetyl-L-phenylalanine N,N-diethylaminoethyl ester hydrobromide (the HPC of melphalan) (group E1: 1 mg/kg, orally, group E2, 3 mg/kg, orally, group E3:1 mg/kg, transdermally, and group E4: 3 mg/kg, transdermally).
# [5] = 50 μl of 5% topically every 8 hours
# [6] = 1.5 mg/kg per day, transdermally
# [7] = 50 μl of 5% topically every 8 hours, in g (unit assumed)
smiles,measurement,setting,value
CCN(CC)CCOc1ccccc1C(=O)O [diethylaminoethyl salicylic acid],concentration in Leg muscle,[1],6.2 ± 3.2 nmol/g
same,concentration in kidney,[1],3.1 ± 1.6 nmol/g
same,concentration in liver,[1],1.5 ± 1.2 nmol/g
same,concentration in pancreas,[1],3.1 ± 1.1 nmol/g
same,concentration in stomach,[1],3.2 ± 1.3 nmol/g
"CC1=C(CC(=O)OCCN2CCOCC2)c2cc(F)ccc2/C1=C\c1ccc([S+](C)[O-])cc1.Cl (stereo not drawn) [P-12, 2-(4-morpholinyl)ethyl (Z)-5-fluoro-2-methyl-1-[(4-methylsulfinyl)phenylmethylene]-1H-indene-3-acetate. HCl]",tumor Size at day 42,[2]; [5],240 ± 60 mm^3
same,Weight of mice at day 42,[2]; in vivo,23 ± 3
CCN(CC)CCOC(=O)CCCc1ccc(N(CCS(C)(=O)=O)CCS(C)(=O)=O)cc1.Cl [diethylaminoethyl 4-[bis(2-methylsulfonylethyl)amino]benzenebutyrate.HCl],Weight Loss,[3]; [6],7%
same,Life Elongation Rate,[3]; [6],259%
same,None Disease Rate,[3]; [6],4/7
same,Survival Period,[3]; [6],112.5 ± 8.7 days
same,Weight Loss,"[3]; 3 mg/kg per day, transdermally",11%
same,Life Elongation Rate,"[3]; 3 mg/kg per day, transdermally",256%
same,None Disease Rate,"[3]; 3 mg/kg per day, transdermally",3/7
same,Survival Period,"[3]; 3 mg/kg per day, transdermally",111.2 ± 5.9 days
"N[C@@H](Cc1ccc(N(CCCl)CCCl)cc1)C(=O)O [melphalan, reference compound]",Life Elongation Rate,"[4]; 1 mg/kg per day, orally",106%
same,Survival Period,"[4]; 1 mg/kg per day, orally",48.1 ± 5.3 days
same,Life Elongation Rate,"[4]; 1 mg/kg per day, transdermally",98%
same,Survival Period,"[4]; 1 mg/kg per day, transdermally",44.7 ± 3.6 days
same,Life Elongation Rate,"[4]; 3 mg/kg per day, orally",155%
same,Survival Period,"[4]; 3 mg/kg per day, orally",70.5 ± 3.2 days
same,Life Elongation Rate,"[4]; 3 mg/kg per day, transdermally",100%
same,Survival Period,"[4]; 3 mg/kg per day, transdermally",45.6 ± 3.6 days
same,Weight Loss,"[3]; 1.5 mg/kg per day, orally",10%
same,Life Elongation Rate,"[3]; 1.5 mg/kg per day, orally",121%
same,None Disease Rate,"[3]; 1.5 mg/kg per day, orally",0/7
same,Survival Period,"[3]; 1.5 mg/kg per day, orally",52.7 ± 4.3 days
same,Weight Loss,"[3]; 3 mg/kg per day, orally",20%
same,Life Elongation Rate,"[3]; 3 mg/kg per day, orally",192%
same,None Disease Rate,"[3]; 3 mg/kg per day, orally",2/7
same,Survival Period,"[3]; 3 mg/kg per day, orally",83.5 ± 5.8 days
"CCN(CC)CCOC(=O)C(C)c1ccc2c(c1)C(=O)Cc1cc(C)ccc1O2.Cl (stereo not drawn) [P-37, diethylaminoethyl 2-(8-methyl-10,11-dihydro-11-oxodibenz(b,f)oxepin-2-yl)propionate.HCl]",tumor Size at day 42,[2]; [5],270 ± 70 mm^3
same,Weight of mice at day 42,[2]; in vivo,23 ± 3
O=C(O)c1ccccc1O [salicylic acid],concentration in Leg muscle,[1],41.4 ± 11.2 nmol/g
same,concentration in kidney,[1],21.2 ± 7.6 nmol/g
same,concentration in liver,[1],12.2 ± 6.1 nmol/g
same,concentration in pancreas,[1],14.1 ± 1.2 nmol/g
same,concentration in stomach,[1],25.1 ± 2.4 nmol/g
"Br.CCN(CC)CCOC(=O)CCCc1ccc(N(CCCl)CCCl)cc1 [N,N-diethylaminoethyl 4-[bis(2-chloroethyl)amino]benzenebutyrate.HBr]",Life Elongation Rate,"[4]; 1 mg/kg per day, orally",158%
same,Survival Period,"[4]; 1 mg/kg per day, orally",71.7 ± 3.3 days
same,Life Elongation Rate,"[4]; 1 mg/kg per day, transdermally",188%
same,Survival Period,"[4]; 1 mg/kg per day, transdermally",85.7 ± 4.4 days
same,Life Elongation Rate,"[4]; 3 mg/kg per day, orally",194%
same,Survival Period,"[4]; 3 mg/kg per day, orally",88.5 ± 3.2 days
same,Life Elongation Rate,"[4]; 3 mg/kg per day, transdermally",201%
same,Survival Period,"[4]; 3 mg/kg per day, transdermally",91.5 ± 4.7 days
same,Weight Loss,[3]; [6],7%
same,Life Elongation Rate,[3]; [6],282%
same,None Disease Rate,[3]; [6],4/7
same,Survival Period,[3]; [6],122.5 ± 7.3 days
same,Weight Loss,"[3]; 3 mg/kg per day, transdermally",10%
same,Life Elongation Rate,"[3]; 3 mg/kg per day, transdermally",269%
same,None Disease Rate,"[3]; 3 mg/kg per day, transdermally",4/7
same,Survival Period,"[3]; 3 mg/kg per day, transdermally",117.2 ± 6.1 days
"CN(C)CCCC(=O)OC1=C(C(=O)Nc2ccccn2)N(C)S(=O)(=O)c2ccccc21.Cl [P-51, 4-N,N-dimethylaminobutyryloxy-2-methyl-N-2-pyridinyl-2H,1,2-benzothiazine-3-carboxamide 1,1-dioxide.HCl]",tumor Size at day 42,[2]; [5],390 ± 55 mm^3
same,Weight of mice at day 42,[2]; in vivo,23 ± 2
"Br.CCN(CC)CCOC(=O)[C@H](Cc1ccc(N(CCCl)CCCl)cc1)NC(C)=O [4-[bis(2-chloroethyl)amino]-N-acetyl-L-phenylalanine N,N-diethylaminoethyl ester hydrobromide]",Life Elongation Rate,"[4]; 1 mg/kg per day, orally",151%
same,Survival Period,"[4]; 1 mg/kg per day, orally",68.7 ± 5.1 days
same,Life Elongation Rate,"[4]; 1 mg/kg per day, transdermally",190%
same,Survival Period,"[4]; 1 mg/kg per day, transdermally",86.7 ± 4.5 days
same,Life Elongation Rate,"[4]; 3 mg/kg per day, orally",187%
same,Survival Period,"[4]; 3 mg/kg per day, orally",85.2 ± 4.3 days
same,Life Elongation Rate,"[4]; 3 mg/kg per day, transdermally",192%
same,Survival Period,"[4]; 3 mg/kg per day, transdermally",87.5 ± 4.2 days
same,Weight Loss,[3]; [6],5%
same,Life Elongation Rate,[3]; [6],272%
same,None Disease Rate,[3]; [6],4/7
same,Survival Period,[3]; [6],118.5 ± 7.6 days
same,Weight Loss,"[3]; 3 mg/kg per day, transdermally",9%
same,Life Elongation Rate,"[3]; 3 mg/kg per day, transdermally",265%
same,None Disease Rate,"[3]; 3 mg/kg per day, transdermally",3/7
same,Survival Period,"[3]; 3 mg/kg per day, transdermally",115.2 ± 6.8 days
Cl.O=C(OCCCN1CCCC1)c1ccccc1Nc1cccc(C(F)(F)F)c1 [P-48],tumor Size at day 42,[2]; [5],280 ± 50 mm^3
same,Weight of mice at day 42,[2]; [7],22 ± 3
"CCN(CC)CCOC(=O)Cc1c(C)n(C(=O)c2ccc(Cl)cc2)c2ccc(OC)cc12.Cl [P-11, diethylaminoethyl 1-(p-chlorobenzoyl)-5-methoxy-2-methylindole 3-acetate.HCl]",tumor Size at day 42,[2]; [5],230 ± 105 mm^3
same,Weight of mice at day 42,[2]; [7],23 ± 2
"CCN(CC)CCOC(=O)Cc1ccccc1Oc1ccc(Cl)cc1Cl.Cl [P-19, diethylaminoethyl 2-(2,4-dichlorophenoxy)benzeneacetate.HCl]",tumor Size at day 42,[2]; [5],260 ± 55 mm^3
same,Weight of mice at day 42,[2]; in vivo,22 ± 2
